Reference: paper PMC5218480 (PLoS ONE, 2017)

Test system: MV-4-11 cells
Experiment: Gene expression microarray analysis (Affymetrix PrimeView) and GSEA
Format: cell-based, human
Parameters: RFU PODN (11730768_x_at) / Fold change /veh PODN (11730768_x_at) / RFU LINC00158 (11744669_a_at) / Fold change /veh LINC00158 (11744669_a_at) / RFU DUSP10 (11751237_a_at) / Fold change /veh DUSP10 (11751237_a_at) / RFU ID3 (11757404_x_at) / Fold change /veh ID3 (11757404_x_at) / RFU PLEKHG5 (11737974_s_at) / Fold change /veh PLEKHG5 (11737974_s_at) / RFU LRRC4B (11730491_at) / Fold change /veh LRRC4B (11730491_at) / RFU GIMAP4 (11747438_a_at) / Fold change /veh GIMAP4 (11747438_a_at) / RFU KRT8 (11758183_x_at) / Fold change /veh KRT8 (11758183_x_at) / RFU CNN1 (11734310_a_at) / Fold change /veh CNN1 (11734310_a_at) / RFU VPS37D (11726825_at) / Fold change /veh VPS37D (11726825_at) / RFU C10orf10 (11716522_x_at) / Fold change /veh C10orf10 (11716522_x_at) / RFU KIR2DL2 /// KIR2DL4 /// KIR2DL5A /// KIR2DL5B /// KIR2DS1 /// KIR2DS2 /// KIR2DS3 /// KIR2DS4 /// KIR3DL3 /// KIR3DL3 /// KIR3DS1 (11738374_at) / Fold change /veh KIR2DL2 /// KIR2DL4 /// KIR2DL5A /// KIR2DL5B /// KIR2DS1 /// KIR2DS2 /// KIR2DS3 /// KIR2DS4 /// KIR3DL3 /// KIR3DL3 /// KIR3DS1 (11738374_at) / RFU C1QL1 (11718748_at) / Fold change /veh C1QL1 (11718748_at) / RFU TMPRSS4 (11747572_a_at) / Fold change /veh TMPRSS4 (11747572_a_at) / RFU HAMP (11756126_x_at) / Fold change /veh HAMP (11756126_x_at) / RFU RNFT2 (11725882_a_at) / Fold change /veh RNFT2 (11725882_a_at) / RFU NR4A2 (11747474_a_at) / Fold change /veh NR4A2 (11747474_a_at) / RFU ABCC12 (11746883_a_at) / Fold change /veh ABCC12 (11746883_a_at) / RFU TMEM136 (11760407_x_at) / Fold change /veh TMEM136 (11760407_x_at) / RFU CLDN22 /// WWC2 (11732394_at) / Fold change /veh CLDN22 /// WWC2 (11732394_at) / RFU HLA-DPB1 (11760878_x_at) / Fold change /veh HLA-DPB1 (11760878_x_at) / RFU SPINT1 (11716480_a_at) / Fold change /veh SPINT1 (11716480_a_at) / RFU GAP43 (11754022_s_at) / Fold change /veh GAP43 (11754022_s_at) / RFU A4GNT (11735810_at) / Fold change /veh A4GNT (11735810_at) / RFU PRB3 (11715151_x_at) / Fold change /veh PRB3 (11715151_x_at) / RFU TUBB4B (11761932_at) / Fold change /veh TUBB4B (11761932_at) / RFU CAPN14 (11732068_a_at) / Fold change /veh CAPN14 (11732068_a_at) / RFU TMCC2 (11721928_a_at) / Fold change /veh TMCC2 (11721928_a_at) / RFU IRGQ (11745062_a_at) / Fold change /veh IRGQ (11745062_a_at) / RFU FAM174B (11720279_a_at) / Fold change /veh FAM174B (11720279_a_at) / RFU TMPRSS4 (11748680_a_at) / Fold change /veh TMPRSS4 (11748680_a_at) / RFU FAM212B (11763350_a_at) / Fold change /veh FAM212B (11763350_a_at) / RFU PLEKHG5 (11743358_a_at) / Fold change /veh PLEKHG5 (11743358_a_at) / RFU ZSCAN30 (11745921_a_at) / Fold change /veh ZSCAN30 (11745921_a_at) / RFU CMKLR1 (11741424_a_at) / Fold change /veh CMKLR1 (11741424_a_at) / RFU LOC101060620 /// MAPK8IP1 (11723275_at) / Fold change /veh LOC101060620 /// MAPK8IP1 (11723275_at) / RFU SPTSSB (11747773_x_at) / Fold change /veh SPTSSB (11747773_x_at) / RFU PRSS12 (11739890_at) / Fold change /veh PRSS12 (11739890_at) / RFU BIN1 (11741810_x_at) / Fold change /veh BIN1 (11741810_x_at) / RFU WNT11 (11732464_a_at) / Fold change /veh WNT11 (11732464_a_at) / RFU C10orf10 (11716521_a_at) / Fold change /veh C10orf10 (11716521_a_at) / RFU C5orf56 (11738089_at) / Fold change /veh C5orf56 (11738089_at) / RFU CYB561 (11721691_x_at) / Fold change /veh CYB561 (11721691_x_at) / RFU ANKRD19P (11752326_a_at) / Fold change /veh ANKRD19P (11752326_a_at) / RFU OR2T12 /// OR2T33 /// OR2T8 (11738714_s_at) / Fold change /veh OR2T12 /// OR2T33 /// OR2T8 (11738714_s_at) / RFU VCAN (11748164_a_at) / Fold change /veh VCAN (11748164_a_at) / RFU JSRP1 (11732532_at) / Fold change /veh JSRP1 (11732532_at) / RFU KRTAP10-11 (11738290_x_at) / Fold change /veh KRTAP10-11 (11738290_x_at) / RFU MYO3A (11730013_a_at) / Fold change /veh MYO3A (11730013_a_at) / RFU EBF3 (11725865_a_at) / Fold change /veh EBF3 (11725865_a_at) / RFU CAMK2N1 (11719241_x_at) / Fold change /veh CAMK2N1 (11719241_x_at) / RFU C5orf56 (11738088_a_at) / Fold change /veh C5orf56 (11738088_a_at) / RFU OLFML3 (11715873_a_at) / Fold change /veh OLFML3 (11715873_a_at) / RFU LOC100653217 /// NTM (11731650_a_at) / Fold change /veh LOC100653217 /// NTM (11731650_a_at) / RFU MAPK11 (11762145_a_at) / Fold change /veh MAPK11 (11762145_a_at) / RFU FIZ1 (11724087_x_at) / Fold change /veh FIZ1 (11724087_x_at) / RFU OASL (11726364_x_at) / Fold change /veh OASL (11726364_x_at) / RFU SOX15 (11748057_x_at) / Fold change /veh SOX15 (11748057_x_at) / RFU CD79A (11719716_a_at) / Fold change /veh CD79A (11719716_a_at) / RFU HIST1H1D (11736915_at) / Fold change /veh HIST1H1D (11736915_at) / RFU CASKIN2 (11723855_a_at) / Fold change /veh CASKIN2 (11723855_a_at) / RFU LOC730098 (11760151_x_at) / Fold change /veh LOC730098 (11760151_x_at) / RFU OR4N2 (11742367_at) / Fold change /veh OR4N2 (11742367_at) / RFU PRRT2 (11749266_a_at) / Fold change /veh PRRT2 (11749266_a_at) / RFU SNX32 (11753110_a_at) / Fold change /veh SNX32 (11753110_a_at) / RFU CDHR5 (11726645_a_at) / Fold change /veh CDHR5 (11726645_a_at) / RFU RCAN1 (11760418_a_at) / Fold change /veh RCAN1 (11760418_a_at) / RFU FAM167A (11723789_a_at) / Fold change /veh FAM167A (11723789_a_at) / RFU FAM26E (11764081_at) / Fold change /veh FAM26E (11764081_at) / RFU ISYNA1 (11749810_s_at) / Fold change /veh ISYNA1 (11749810_s_at) / RFU ACY1 (11761880_at) / Fold change /veh ACY1 (11761880_at) / RFU 11764098_at / Fold change /veh 11764098_at / RFU SAMD14 (11745864_x_at) / Fold change /veh SAMD14 (11745864_x_at) / RFU NPB (11741838_a_at) / Fold change /veh NPB (11741838_a_at) / RFU TMPRSS6 (11731388_a_at) / Fold change /veh TMPRSS6 (11731388_a_at) / RFU KRTAP10-2 (11738614_at) / Fold change /veh KRTAP10-2 (11738614_at) / RFU ARHGAP8 /// PRR5-ARHGAP8 (11727945_x_at) / Fold change /veh ARHGAP8 /// PRR5-ARHGAP8 (11727945_x_at) / RFU KRTAP5-7 /// NADSYN1 (11734609_at) / Fold change /veh KRTAP5-7 /// NADSYN1 (11734609_at) / RFU RASL12 (11751679_a_at) / Fold change /veh RASL12 (11751679_a_at) / RFU CDKN2B (11736163_a_at) / Fold change /veh CDKN2B (11736163_a_at) / RFU PRF1 (11729649_at) / Fold change /veh PRF1 (11729649_at) / RFU, ZNF638 /// ZNF638-IT1 / Fold change vs veh, ZNF638 /// ZNF638-IT1 / RFU, PANK3 / Fold change vs veh, PANK3 / RFU, SH3YL1 / Fold change vs veh, SH3YL1 / RFU, ZEB2 / Fold change vs veh, ZEB2 / RFU, NRIP1 / Fold change vs veh, NRIP1 / RFU, PTTG1IP / Fold change vs veh, PTTG1IP / RFU, CAPN2 / Fold change vs veh, CAPN2 / RFU, MED14 / Fold change vs veh, MED14 / RFU, SNORA58 / Fold change vs veh, SNORA58 / RFU, C1orf63 / Fold change vs veh, C1orf63 / RFU, LRRFIP1 / Fold change vs veh, LRRFIP1 / RFU, NDUFAF7 / Fold change vs veh, NDUFAF7 / RFU, SLC12A2 / Fold change vs veh, SLC12A2 / RFU, IBTK / Fold change vs veh, IBTK / RFU, ESF1 / Fold change vs veh, ESF1 / Fold change vs veh, TMEM50B / RFU, TAOK1 / Fold change vs veh, TAOK1 / RFU, ACBD3 / Fold change vs veh, ACBD3 / RFU, TMA16 / Fold change vs veh, TMA16 / RFU, RWDD3 / Fold change vs veh, RWDD3 / RFU, BCAT1 / Fold change vs veh, BCAT1 / RFU, EDEM3 / Fold change vs veh, EDEM3 / RFU, TMEM33 / Fold change vs veh, TMEM33 / RFU, WDR75 / Fold change vs veh, WDR75 / RFU, AHCTF1 / Fold change vs veh, AHCTF1 / RFU, TFRC / Fold change vs veh, TFRC / RFU, ZDHHC17 / Fold change vs veh, ZDHHC17 / RFU, NOM1 / Fold change vs veh, NOM1 / RFU, ARL8B / Fold change vs veh, ARL8B / RFU, ZBTB11 / Fold change vs veh, ZBTB11 / RFU, TAMM41 / Fold change vs veh, TAMM41 / RFU, KIAA1704 /// LOC100996395 / Fold change vs veh, KIAA1704 /// LOC100996395 / RFU, ING1 / Fold change vs veh, ING1 / RFU, TRMT61B / Fold change vs veh, TRMT61B / RFU, FUBP3 / Fold change vs veh, FUBP3 / RFU, TP53 / Fold change vs veh, TP53 / RFU, TNKS2 / Fold change vs veh, TNKS2 / RFU, ZFP14 / Fold change vs veh, ZFP14 / RFU, ACTR2 / Fold change vs veh, ACTR2 / RFU, PPP3R1 / Fold change vs veh, PPP3R1 / RFU, PIK3R1 / Fold change vs veh, PIK3R1 / RFU, HNRNPA1 / Fold change vs veh, HNRNPA1 / RFU, RNF170 / Fold change vs veh, RNF170 / RFU, ZNF28 / Fold change vs veh, ZNF28 / RFU, RNGTT / Fold change vs veh, RNGTT / RFU, OGT / Fold change vs veh, OGT / RFU, BRD1 / Fold change vs veh, BRD1 / RFU, MARS / Fold change vs veh, MARS / RFU, ZNF655 / Fold change vs veh, ZNF655 / RFU, FAHD1 / Fold change vs veh, FAHD1 / RFU, BDP1 / Fold change vs veh, BDP1 / RFU, LRRCC1 / Fold change vs veh, LRRCC1 / RFU, ARID1A / Fold change vs veh, ARID1A / RFU, ZNF146 / Fold change vs veh, ZNF146 / RFU, ZNF330 / Fold change vs veh, ZNF330 / RFU, GPN3 / Fold change vs veh, GPN3 / RFU, C9orf123 / Fold change vs veh, C9orf123 / RFU, N4BP2L2 / Fold change vs veh, N4BP2L2 / RFU, ARFIP1 / Fold change vs veh, ARFIP1 / RFU, FAM179B / Fold change vs veh, FAM179B / RFU, BCL10 / Fold change vs veh, BCL10 / RFU, UHRF1BP1L / Fold change vs veh, UHRF1BP1L / RFU, BET1 / Fold change vs veh, BET1 / RFU, CNOT2 / Fold change vs veh, CNOT2 / RFU, ZNF268 / Fold change vs veh, ZNF268 / Fold change vs veh, ZNF507 / RFU, DGCR2 / Fold change vs veh, DGCR2 / RFU, WDSUB1 / Fold change vs veh, WDSUB1 / Fold change vs veh, HSP90B1 /// MIR3652 / RFU, ADSS / Fold change vs veh, ADSS / RFU, GK / Fold change vs veh, GK / RFU, ZNF148 / Fold change vs veh, ZNF148 / RFU, TAF9 / Fold change vs veh, TAF9 / RFU, SLC1A5 / Fold change vs veh, SLC1A5 / RFU, SLMO2 / Fold change vs veh, SLMO2 / RFU, ABCC4 / Fold change vs veh, ABCC4 / RFU, LOC101060439 /// RAP1B / Fold change vs veh, LOC101060439 /// RAP1B / RFU, RFX7 / Fold change vs veh, RFX7 / RFU, GTPBP10 / Fold change vs veh, GTPBP10 / RFU, CNEP1R1 / Fold change vs veh, CNEP1R1 / RFU, BIVM-ERCC5 /// ERCC5 / Fold change vs veh, BIVM-ERCC5 /// ERCC5 / RFU, ILF3 / Fold change vs veh, ILF3 / RFU 11762660_at / Fold change /veh 11762660_at / RFU VCAN (11757783_s_at) / Fold change /veh VCAN (11757783_s_at) / RFU DDX43 (11728927_at) / Fold change /veh DDX43 (11728927_at) / RFU KRT8 (11758188_x_at) / Fold change /veh KRT8 (11758188_x_at) / RFU NKD1 (11759106_at) / Fold change /veh NKD1 (11759106_at) / RFU SRD5A1 (11742802_a_at) / Fold change /veh SRD5A1 (11742802_a_at) / RFU TPSAB1 /// TPSB2 (11721975_s_at) / Fold change /veh TPSAB1 /// TPSB2 (11721975_s_at) / RFU GSTM3 (11746129_a_at) / Fold change /veh GSTM3 (11746129_a_at) / RFU IL23R (11737362_x_at) / Fold change /veh IL23R (11737362_x_at) / RFU TMEM51 (11727254_a_at) / Fold change /veh TMEM51 (11727254_a_at) / RFU PIWIL2 (11732686_x_at) / Fold change /veh PIWIL2 (11732686_x_at) / RFU ORM1 (11744905_x_at) / Fold change /veh ORM1 (11744905_x_at) / RFU CCDC152 (11743942_at) / Fold change /veh CCDC152 (11743942_at) / RFU ECM1 (11717891_a_at) / Fold change /veh ECM1 (11717891_a_at) / RFU IL23R (11748794_a_at) / Fold change /veh IL23R (11748794_a_at) / RFU TNFAIP8L3 (11732012_x_at) / Fold change /veh TNFAIP8L3 (11732012_x_at) / RFU MBOAT4 (11741988_at) / Fold change /veh MBOAT4 (11741988_at) / RFU 11764193_at / Fold change /veh 11764193_at / RFU TMEM53 (11763286_at) / Fold change /veh TMEM53 (11763286_at) / RFU MAGEB2 (11727129_at) / Fold change /veh MAGEB2 (11727129_at) / RFU TMEM200A (11744735_a_at) / Fold change /veh TMEM200A (11744735_a_at) / RFU CCDC152 (11751479_a_at) / Fold change /veh CCDC152 (11751479_a_at) / RFU FAM211A (11726209_a_at) / Fold change /veh FAM211A (11726209_a_at) / RFU RGS16 (11746705_a_at) / Fold change /veh RGS16 (11746705_a_at) / RFU VCAN (11755009_s_at) / Fold change /veh VCAN (11755009_s_at) / RFU RHOB (11743442_s_at) / Fold change /veh RHOB (11743442_s_at) / RFU RGS16 (11720943_a_at) / Fold change /veh RGS16 (11720943_a_at) / RFU RGS16 (11720944_at) / Fold change /veh RGS16 (11720944_at) / RFU, VPS4B / Fold change vs veh, VPS4B / RFU, CREB1 / Fold change vs veh, CREB1 / RFU, DNAJC13 / Fold change vs veh, DNAJC13 / RFU, GNAQ / Fold change vs veh, GNAQ / RFU, CDK5R1 / Fold change vs veh, CDK5R1 / RFU, ZRANB3 / Fold change vs veh, ZRANB3 / RFU, CUL4A / Fold change vs veh, CUL4A / RFU, CCNY / Fold change vs veh, CCNY / RFU, UFL1 / Fold change vs veh, UFL1 / RFU, COG3 / Fold change vs veh, COG3 / RFU, DIAPH2 / Fold change vs veh, DIAPH2 / RFU, SKA2 / Fold change vs veh, SKA2 / RFU, AFF3 / Fold change vs veh, AFF3 / RFU, LMF1 / Fold change vs veh, LMF1 / RFU, IPO11 / Fold change vs veh, IPO11 / RFU, DFFB / Fold change vs veh, DFFB / RFU, FOXP1 / Fold change vs veh, FOXP1 / RFU, CARD8 / Fold change vs veh, CARD8 / RFU, STRN3 / Fold change vs veh, STRN3 / RFU, ADK / Fold change vs veh, ADK / RFU, RASSF2 / Fold change vs veh, RASSF2 / RFU, WIPF1 / Fold change vs veh, WIPF1 / RFU, LARP1B / Fold change vs veh, LARP1B / RFU, RASA1 / Fold change vs veh, RASA1 / RFU, RB1 / Fold change vs veh, RB1 / RFU, PPFIA1 / Fold change vs veh, PPFIA1 / RFU, MAT2A / Fold change vs veh, MAT2A / RFU, CCT5 / Fold change vs veh, CCT5 / RFU, WDR92 / Fold change vs veh, WDR92 / RFU, CUX1 / Fold change vs veh, CUX1 / RFU, TTC7A / Fold change vs veh, TTC7A / RFU, TMEM135 / Fold change vs veh, TMEM135 / RFU, DEPTOR / Fold change vs veh, DEPTOR / RFU, CPM / Fold change vs veh, CPM / RFU, DNAJB6 / Fold change vs veh, DNAJB6 / RFU, CACNA2D3 / Fold change vs veh, CACNA2D3 / RFU, DTX4 / Fold change vs veh, DTX4 / RFU, TFCP2 / Fold change vs veh, TFCP2 / RFU, GMCL1 /// GMCL1P1 / Fold change vs veh, GMCL1 /// GMCL1P1 / RFU, AEBP2 / Fold change vs veh, AEBP2 / RFU, SNHG1 /// SNORD22 /// SNORD25 /// SNORD26 /// SNORD27 /// SNORD28 /// SNORD29 /// SNORD31 / Fold change vs veh, SNHG1 /// SNORD22 /// SNORD25 /// SNORD26 /// SNORD27 /// SNORD28 /// SNORD29 /// SNORD31 / Fold change (Aza/veh), C12orf56 (ProbeSet 11735607_a_at) / Fold change (ACY-1035/veh), C12orf56 (ProbeSet 11735607_a_at) / Fold change (Aza/veh), FGFR1OP (ProbeSet 11751329_s_at) / Fold change (ACY-1035/veh), FGFR1OP (ProbeSet 11751329_s_at) / Fold change (Aza/veh), VPS36 (ProbeSet 11739960_a_at) / Fold change (ACY-1035/veh), VPS36 (ProbeSet 11739960_a_at) / RFU SYPL1 (11715823_x_at) / Fold change /veh SYPL1 (11715823_x_at) / RFU IGFBP7 (11715501_s_at) / Fold change /veh IGFBP7 (11715501_s_at) / RFU REEP3 (11722064_at) / Fold change /veh REEP3 (11722064_at) / RFU IGLL1 (11728026_x_at) / Fold change /veh IGLL1 (11728026_x_at): dose or concentration left out as unconfirmed
Details: ProbeSet 11722463_a_at; LIST B

SMILES: Nc1ncn([C@@H]2O[C@H](CO)[C@@H](O)[C@H]2O)c(=O)n1 [azacitidine]
- RFU, TNKS2: 47.93 RFU
